“And” between values parts separate entries of the source, which are not always exact repeats. Identical values can stand only once.
Tests used:
Assay type in all cases: in vivo, Wistar rats
[1] = Plasma radiometabolite analysis (30 min p.i.); conditions: n = 2
Method: The metabolic stability of [^11C]B-4, [^11C]B-2, [^11C]B-7, and [^11C]B-10 was studied in healthy male Wistar rats by determination of the relative amounts of parent tracer and radiometabolites in plasma at 30 min p.i. of the tracer. After intravenous (i.v.) administration of about 74 MBq of the radioligand via tail vein under anesthesia (2.5% Isoflurane in O2 at 1 L/min flow rate), rats were sacrificed by decapitation at 30 min p.i. (n=2). Blood was collected in heparin containing tubes (4.5 mL LH PST tubes; BD vacutainer, BD, Franklin Lakes, N.J., USA) and stored on ice to stop the metabolism. Next, the blood was centrifuged for 5 min at 3000 rpm to separate the plasma. About 0.5 mL of plasma was spiked with about 10 μg of the authentic non-radioactive compound (1 mg/mL solution) and injected on to HPLC, which was connected to a Chromolith® performance column (C18, 3 mm×100 mm, Merck KGaA, Darmstadt, Germany). The mobile phase consisted of 0.05 M NaOAc buffer (pH 5.5) (solution A) and CH3CN (solvent B). The following method was used for the analysis: isocratic elution with 100% A for 4 min at a flow rate of 0.5 mL/min, linear gradient to 90% B by 9 min at a flow rate of 1 mL/min, and isocratic elution with mixture of 10% A and 90% B until 12 min. After passing through the UV detector (254 nm), the HPLC eluate was collected as 1 mL fractions (fraction collection each minute) using an automatic fraction collector and the radioactivity of these fractions was measured using an automated gamma counter.

[2] = Perfused brain radiometabolite analysis (30 min p.i.)
Method: The relative amounts of parent tracer and radiometabolites in perfused cerebellum and cerebrum at 30 min p.i. of the tracer was determined in healthy male Wistar rats for [^11C]B-4, [^11C]B-2, [^11C]B-7, and [^11C]B-10. After i.v. administration of about 74 MBq of the radioligand via tail vein under anesthesia (2.5% Isoflurane in O2 at 1 L/min flow rate), rats were sacrificed by administering an overdose of Nembutal (CEVA Santé Animale, 200 mg/kg intraperitoneal). When breathing had stopped, the rats were perfused with saline (Mini Plasco®, Braun, Melsungen, Germany) until the liver turned pale. Brain was isolated, cerebrum and cerebellum were separated and homogenized in 3 mL and 2 mL of CH3CN, respectively, for about 2 min. A volume of 1 mL of this homogenate was diluted with an equal volume of water and a part of this homogenate was filtered through a 0.22 μm filter (Millipore, Bedford, USA). About 0.5 mL of the filtrate was diluted with 0.1 mL of water and spiked with 10 μg of authentic non-radioactive compound (1 mg/mL solution) for identification of the intact tracer. The cerebrum/cerebellum extract was then injected onto an HPLC system consisting of an analytical XBridge® column (C18, 5 μM, 3 mm×100 mm, Waters) eluted with a mixture of 0.05 M NaOAc buffer (pH 5.5) and CH3CN (60:40 v/v) at a flow rate of 0.8 mL/min. The HPLC eluate was collected as 1 mL fractions (fraction collection each minute) after passing through the UV detector (254 nm), and the radioactivity in the fractions was measured using an automated gamma counter.

mGluR2 = target: T1, mGluR2 (Rattus norvegicus, UniProt P31421); experiment: MicroPET imaging: baseline, blocking and chase experiments; conditions: for % reduction of SUV (total brain) due to chase: chase compound B 4 mg/kg i.v.; for SUV (total brain) before chase: maximum SUV; for SUV (total brain) before chase / SUV (total brain) after chase: chase compound B 4 mg/kg i.v. 30 min after tracer; for SUV (total brain) after chase: minimum SUV; for average SUV (total brain) after chase: 4650-5250 sec p.i.; for character of tracer binding to mGluR2 in vivo: concluded from blocking/chase microPET experiments
T1 construct: from tissue; host or cells: brain of living male Wistar rats (in vivo microPET)
T1 sequence (P31421 19-872): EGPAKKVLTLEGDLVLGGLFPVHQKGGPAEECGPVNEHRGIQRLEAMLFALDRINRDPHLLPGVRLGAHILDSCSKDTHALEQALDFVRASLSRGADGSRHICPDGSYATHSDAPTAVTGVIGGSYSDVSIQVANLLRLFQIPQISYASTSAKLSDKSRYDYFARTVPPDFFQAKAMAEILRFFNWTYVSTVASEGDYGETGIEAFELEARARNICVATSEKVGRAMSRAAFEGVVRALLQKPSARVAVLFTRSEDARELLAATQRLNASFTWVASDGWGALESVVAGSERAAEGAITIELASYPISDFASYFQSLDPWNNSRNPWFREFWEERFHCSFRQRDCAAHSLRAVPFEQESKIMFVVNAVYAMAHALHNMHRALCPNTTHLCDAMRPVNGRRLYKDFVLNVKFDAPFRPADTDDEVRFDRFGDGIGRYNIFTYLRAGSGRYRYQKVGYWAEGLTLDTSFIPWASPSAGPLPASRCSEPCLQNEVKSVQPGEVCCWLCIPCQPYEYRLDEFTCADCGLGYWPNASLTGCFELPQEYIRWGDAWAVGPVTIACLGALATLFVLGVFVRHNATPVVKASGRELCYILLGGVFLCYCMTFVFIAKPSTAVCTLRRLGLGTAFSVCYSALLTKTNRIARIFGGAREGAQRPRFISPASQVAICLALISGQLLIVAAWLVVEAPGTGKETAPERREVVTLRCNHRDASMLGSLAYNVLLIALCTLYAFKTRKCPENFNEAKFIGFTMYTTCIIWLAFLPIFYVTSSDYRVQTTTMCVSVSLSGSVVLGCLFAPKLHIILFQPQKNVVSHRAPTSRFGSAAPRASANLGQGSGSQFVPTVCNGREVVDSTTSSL
Method: Imaging experiments were performed on a Focus™ 220 microPET scanner (Concorde Microsystems, Knoxyille, Tenn., USA) using healthy male Wistar rats. During all scan sessions, animals were kept under gas anesthesia (2.5% isoflurane in O2 at 1 L/min flow rate).
Dynamic scans of 90 min were acquired. After reconstruction of the images (filtered back projection), they were spatially normalized to an in-house created [^11C]raclopride template of the rat brain in Paxinos coordinates. Automated and symmetric volumes of interest (VOIs) were generated for different brain regions (striatum, cortex, cerebellum, hippocampus, hypothalamus, thalamus, substantia nigra, nucleus accumbens and lateral globus pallidus) from which time-activity curves (TAC) were constructed for each individual scan, using PMOD software (v 3.1, PMOD Technologies Ltd.). The radioactivity concentration in the different brain regions was expressed as SUV as a function of time p.i. of the radiotracer by normalization for body weight of the animal and injected dose.
Rats were injected with 30-60 MBq of high specific activity formulation of [^11C]B-4, [^11C]B-2, [^11C]B-7, or [^11C]B-10 via the tail vein under isoflurane anesthesia (2.5% in O2 at 1 L/min flow rate).
For pretreatment and displacement experiments, compound A, compound B or ritanserin were dissolved and administered in a vehicle containing 20% (2-hydroxypropyl)-β-cyclodextrine and two equivalents hydrochloric acid. The ritanserin solution was protected from light.
A self-blocking study was done by subcutaneous (s.c.) administration of the authentic reference material (for [^11C]B-4) at ˜30 min prior to the radiotracer injection. Displacement studies were performed by i.v. injection of compound B at dose 4, 1, 0.3 and 0.1 mg/kg, compound A at dose 1 mg/kg or ritanserin at dose 0.3 mg/kg. All chase compounds were injected ˜30 min after radiotracer injection. A wash-out period of at least four days was maintained between the different pretreatment and displacement studies.
[^11C]B-4 was evaluated in vivo in three rats which were scanned dynamically for 90 min using μPET. The first rat was used for a baseline scan. The second rat was pretreated with authentic reference material B-4 via s.c. administration (dose 10 mg/kg) at 30 min prior to tracer injection. The third rat was used in a chase experiment and was injected i.v. with authentic reference material B-4 (dose 3 mg/kg) 30 min after tracer injection.
Two rats were injected with high specific activity tracer ([^11C]B-4, [^11C]B-2, [^11C]B-7, or [^11C]B-10) and scanned dynamically for 90 min. The first rat was scanned baseline, the second rat was injected i.v. with compound B (dose 4 mg/kg) 30 min after tracer injection. Table 16 gives an overview of the maximum and minimum SUV values in the chase experiment for the four studied tracers.
A chase experiment was performed for [^11C]B-2 with different doses of compound B (4, 1, 0.3, 0.1 mg/kg). The chase compound was injected i.v. 30 min after tracer injection. Table 17 gives an overview of the average SUV values before and after injection of the chase for the total brain.

[11CH3]Oc1ccc(F)c(F)c1C1CCN(c2ccn3c(CC4CC4)nnc3c2Cl)CC1 [[^11C]B-10, 8-chloro-3-(cyclopropylmethyl)-7-[4-[2,3-difluoro-6-[^11C]methoxyphenyl]-1-piperidinyl]-1,2,4-triazolo[4,3-a]pyridine]
Intact tracer in rat plasma [1]: 45.5 ± 2.1%
Polar metabolites in rat plasma [1]: 54.5 ± 2.1%
intact tracer in perfused cerebellum [2]: 96.4%
intact tracer in perfused cerebrum [2]: 93.1%
polar metabolite in perfused cerebellum [2]: 3.6%
polar metabolite in perfused cerebrum [2]: 6.9%
recovered radioactivity present as intact tracer, on average, in both cerebrum and cerebellum [2]: about 90%
% reduction of SUV (total brain) due to chase (mGluR2): 58%
SUV (total brain) before chase (mGluR2): 1.2
SUV (total brain) after chase (mGluR2): 0.5

[11CH3]Oc1c(F)ccc(F)c1C1CCN(c2ccn3c(CC4CC4)nnc3c2Cl)CC1 [[^11C]B-2, 8-chloro-3-(cyclopropylmethyl)-7-[4-(3,6-difluoro-2-[^11C]methoxyphenyl)-1-piperidinyl]-1,2,4-triazolo[4,3-a]pyridine]
Intact tracer in rat plasma [1]: 70% and 69.7 ± 5.1%
Polar metabolites in rat plasma [1]: 30.3 ± 5.1%
intact tracer in perfused cerebellum [2]: 95.5 ± 1.3%
intact tracer in perfused cerebrum [2]: 90.3 ± 0.3%
polar metabolite in perfused cerebellum [2]: 4.1 ± 1.5%
polar metabolite in perfused cerebrum [2]: 9.7 ± 0.3%
recovered radioactivity present as intact tracer, on average, in both cerebrum and cerebellum [2]: about 90%
average SUV (total brain), baseline (mGluR2; baseline scan, 930-1650 sec p.i.): 1.26
% reduction of SUV (total brain) due to chase (mGluR2): 73%
% reduction of SUV (total brain) (mGluR2; compound B 0.1 mg/kg): 50%
average SUV (total brain) before chase (mGluR2; compound B 0.1 mg/kg, 930-1650 sec p.i.): 1.35
average SUV (total brain) after chase (mGluR2; compound B 0.1 mg/kg): 0.67
% reduction of SUV (total brain) (mGluR2; compound B 0.3 mg/kg): 64%
average SUV (total brain) before chase (mGluR2; compound B 0.3 mg/kg, 930-1650 sec p.i.): 2.15
average SUV (total brain) after chase (mGluR2; compound B 0.3 mg/kg): 0.78
% reduction of SUV (total brain) (mGluR2; compound B 1 mg/kg): 66%
average SUV (total brain) before chase (mGluR2; compound B 1 mg/kg, 930-1650 sec p.i.): 1.78
average SUV (total brain) after chase (mGluR2; compound B 1 mg/kg): 0.61
% reduction of SUV (total brain) (mGluR2; compound B 4 mg/kg): 74%
average SUV (total brain) before chase (mGluR2; compound B 4 mg/kg, 930-1650 sec p.i.): 1.36
average SUV (total brain) after chase (mGluR2; compound B 4 mg/kg): 0.36
character of tracer binding to mGluR2 in vivo (mGluR2): binds reversible, specific and selective to mGluR2
SUV (total brain) before chase (mGluR2): 1.4
SUV (total brain) after chase (mGluR2): 0.38

[11CH3]Oc1ccc(F)cc1C1CCN(c2ccn3c(CC4CC4)nnc3c2Cl)CC1 [[^11C]B-4, 8-chloro-3-(cyclopropylmethyl)-7-[4-[5-fluoro-2-[^11C]methoxyphenyl]-1-piperidinyl]-1,2,4-triazolo[4,3-a]pyridine]
Intact tracer in rat plasma [1]: 41.0 ± 7.1%
Polar metabolites in rat plasma [1]: 59.0 ± 7.1%
intact tracer in perfused cerebellum [2]: 92.7%
intact tracer in perfused cerebrum [2]: 92.4%
polar metabolite in perfused cerebellum [2]: 7.3%
polar metabolite in perfused cerebrum [2]: 7.6%
recovered radioactivity present as intact tracer, on average, in both cerebrum and cerebellum [2]: about 90%
effect of self-chase on brain radioactivity (mGluR2; B-4 3 mg/kg i.v. 30 min after tracer): significant displacement
effect of self-blocking on brain uptake (mGluR2; B-4 10 mg/kg s.c. 30 min prior to tracer): lower brain uptake and faster wash-out
time at which maximum radioactivity concentration in brain is reached (mGluR2; baseline scan): about 9 min p.i.
time until which maximum radioactivity concentration stays constant (mGluR2; baseline scan, followed by wash-out): about 27 min p.i.
% reduction of SUV (total brain) due to chase (mGluR2): 70%
character of tracer binding to mGluR2 in vivo (mGluR2): binds reversible and specific to mGluR2
SUV (total brain) before chase (mGluR2): 1.05
SUV (total brain) after chase (mGluR2): 0.32

[11CH3]Oc1cc(F)cc(F)c1C1CCN(c2ccn3c(CC4CC4)nnc3c2Cl)CC1 [[^11C]B-7, 8-chloro-3-(cyclopropylmethyl)-7-[4-[2,4-difluoro-6-[^11C]methoxyphenyl]-1-piperidinyl]-1,2,4-triazolo[4,3-a]pyridine]
Intact tracer in rat plasma [1]: 30.8 ± 7.0%
Polar metabolites in rat plasma [1]: 69.2 ± 7.0%
intact tracer in perfused cerebellum [2]: 95.5%
intact tracer in perfused cerebrum [2]: 92.9%
polar metabolite in perfused cerebellum [2]: 4.5%
polar metabolite in perfused cerebrum [2]: 7.1%
recovered radioactivity present as intact tracer, on average, in both cerebrum and cerebellum [2]: about 90%
% reduction of SUV (total brain) due to chase (mGluR2): 58%
SUV (total brain) before chase (mGluR2): 1.2
SUV (total brain) after chase (mGluR2): 0.5

From patent publication US20130230459A1, “RADIOLABELLED mGluR2 PET LIGANDS” (Janssen Pharmaceuticals, Inc., priority 2010, published 2013)
